Among the data in ChEMBL document CHEMBL1765029, “Synthesis and biological evaluation of estradiol linked pyrrolo[2,1-c][1,4]benzodiazepine (PBD) conjugates as potential anticancer agents” (2011) are GI50 values, retold here.

The structures appear in SMILES notation. Counter-ions that a name gives are not always drawn.

The first assay relates to HOP-62. The experiment in a line: Cytotoxicity against human HOP62 cells by sulforhodamine B method. The class given is functional. A general note: The SRB assay estimates cell density from bound dye.
Usually GI50 stands for the concentration that inhibits growth by half. For the molecule `COc1cc2c(cc1OCCCOc1ccc3c(c1)CC[C@@H]1[C@@H]3CC[C@]3(C)[C@@H](O)CC[C@@H]13)N=C[C@@H]1C[C@@H](F)CN1C2=O`, the GI50 is 180 nM.

Molecule `COc1cc2c(cc1OCc1cn(CCCCCOc3ccc4c(c3)CC[C@@H]3[C@@H]4CC[C@]4(C)[C@@H](O)CC[C@@H]34)nn1)N=C[C@@H]1CCCN1C2=O` had a GI50 of 1690 nM.

Turning to `COc1cc2c(cc1OCCCCCN1CCN(CCCCCOc3ccc4c(c3)CC[C@@H]3[C@@H]4CC[C@]4(C)[C@@H](O)CC[C@@H]34)CC1)N=C[C@@H]1CC(F)(F)CN1C2=O`, the GI50 worked out at 170 nM. Against the preceding molecule, the GI50 is about 9.9-fold lower.

The molecule `COc1cccc2c1C(=O)c1c(O)c3c(c(O)c1C2=O)C[C@@](O)(C(=O)CO)C[C@@H]3O[C@H]1C[C@H](N)[C@H](O)[C@H](C)O1` [DOXORUBICIN HYDROCHLORIDE] yielded a GI50 of 140 nM.

In a further assay the test system is COLO 205. Briefly: Cytotoxicity against human COLO205 cells by sulforhodamine B method. The class given is functional.
Regarding `COc1cc2c(cc1OCCCOc1ccc3c(c1)CC[C@@H]1[C@@H]3CC[C@]3(C)[C@@H](O)CC[C@@H]13)N=C[C@@H]1C[C@@H](F)CN1C2=O`, halving of growth (GI50) required 160 nM.

The molecule `COc1cc2c(cc1OCc1cn(CCCCCOc3ccc4c(c3)CC[C@@H]3[C@@H]4CC[C@]4(C)[C@@H](O)CC[C@@H]34)nn1)N=C[C@@H]1CCCN1C2=O` had a GI50 of 170 nM.

`COc1cc2c(cc1OCCCCCN1CCN(CCCCCOc3ccc4c(c3)CC[C@@H]3[C@@H]4CC[C@]4(C)[C@@H](O)CC[C@@H]34)CC1)N=C[C@@H]1CC(F)(F)CN1C2=O` gave a GI50 of 170 nM.

Turning to `COc1cccc2c1C(=O)c1c(O)c3c(c(O)c1C2=O)C[C@@](O)(C(=O)CO)C[C@@H]3O[C@H]1C[C@H](N)[C@H](O)[C@H](C)O1` [DOXORUBICIN HYDROCHLORIDE], growth was halved (GI50) at 140 nM. The GI50 values of the last two molecules are within 1.5-fold of each other.

System in another assay: not listed separately
Briefly: Cytotoxicity against human Gurav cells by sulforhodamine B method. Format: functional.
For the molecule `COc1cc2c(cc1OCCCOc1ccc3c(c1)CC[C@@H]1[C@@H]3CC[C@]3(C)[C@@H](O)CC[C@@H]13)N=C[C@@H]1C[C@@H](F)CN1C2=O`, the GI50 amounted to 190 nM.

Take `COc1cc2c(cc1OCc1cn(CCCCCOc3ccc4c(c3)CC[C@@H]3[C@@H]4CC[C@]4(C)[C@@H](O)CC[C@@H]34)nn1)N=C[C@@H]1CCCN1C2=O`: growth was halved (GI50) at 180 nM.

On to `COc1cc2c(cc1OCCCCCN1CCN(CCCCCOc3ccc4c(c3)CC[C@@H]3[C@@H]4CC[C@]4(C)[C@@H](O)CC[C@@H]34)CC1)N=C[C@@H]1CC(F)(F)CN1C2=O`, for which the GI50 came to 150 nM. The GI50 values of the last two molecules are within 1.5-fold of each other.

Consider `COc1cccc2c1C(=O)c1c(O)c3c(c(O)c1C2=O)C[C@@](O)(C(=O)CO)C[C@@H]3O[C@H]1C[C@H](N)[C@H](O)[C@H](C)O1` [DOXORUBICIN HYDROCHLORIDE], for which halving of growth (GI50) required 170 nM. The GI50 values of the last two molecules are within 1.5-fold of each other.

The next assay deals with KB. Briefly: Cytotoxicity against human KB cells by sulforhodamine B method. Format: functional.
Take `COc1cc2c(cc1OCCCOc1ccc3c(c1)CC[C@@H]1[C@@H]3CC[C@]3(C)[C@@H](O)CC[C@@H]13)N=C[C@@H]1C[C@@H](F)CN1C2=O`: halving of growth (GI50) required 2160 nM. This counts as single-digit micromolar.

The molecule `COc1cc2c(cc1OCc1cn(CCCCCOc3ccc4c(c3)CC[C@@H]3[C@@H]4CC[C@]4(C)[C@@H](O)CC[C@@H]34)nn1)N=C[C@@H]1CCCN1C2=O` displayed a GI50 of 800 nM.

Molecule `COc1cc2c(cc1OCCCCCN1CCN(CCCCCOc3ccc4c(c3)CC[C@@H]3[C@@H]4CC[C@]4(C)[C@@H](O)CC[C@@H]34)CC1)N=C[C@@H]1CC(F)(F)CN1C2=O` showed a GI50 of 810 nM.

`COc1cccc2c1C(=O)c1c(O)c3c(c(O)c1C2=O)C[C@@](O)(C(=O)CO)C[C@@H]3O[C@H]1C[C@H](N)[C@H](O)[C@H](C)O1` [DOXORUBICIN HYDROCHLORIDE] registered a GI50 of 170 nM.

System in the next assay: not listed separately
Briefly: Cytotoxicity against human DWD cells by sulforhodamine B method. The class given is functional.
The molecule `COc1cc2c(cc1OCCCOc1ccc3c(c1)CC[C@@H]1[C@@H]3CC[C@]3(C)[C@@H](O)CC[C@@H]13)N=C[C@@H]1C[C@@H](F)CN1C2=O` displayed a GI50 of 1700 nM.

Molecule `COc1cc2c(cc1OCc1cn(CCCCCOc3ccc4c(c3)CC[C@@H]3[C@@H]4CC[C@]4(C)[C@@H](O)CC[C@@H]34)nn1)N=C[C@@H]1CCCN1C2=O` showed a GI50 of 170 nM. This GI50 lies about 10-fold lower than the previous one.

The molecule `COc1cc2c(cc1OCCCCCN1CCN(CCCCCOc3ccc4c(c3)CC[C@@H]3[C@@H]4CC[C@]4(C)[C@@H](O)CC[C@@H]34)CC1)N=C[C@@H]1CC(F)(F)CN1C2=O` had a GI50 of 1320 nM.

`COc1cccc2c1C(=O)c1c(O)c3c(c(O)c1C2=O)C[C@@](O)(C(=O)CO)C[C@@H]3O[C@H]1C[C@H](N)[C@H](O)[C@H](C)O1` [DOXORUBICIN HYDROCHLORIDE] registered a GI50 of 100 nM.

In another assay the test system is A549. Briefly: Cytotoxicity against human A549 cells by sulforhodamine B method. Format: functional.
The molecule `COc1cc2c(cc1OCCCOc1ccc3c(c1)CC[C@@H]1[C@@H]3CC[C@]3(C)[C@@H](O)CC[C@@H]13)N=C[C@@H]1C[C@@H](F)CN1C2=O` came in with a 50% growth inhibitory concentration (GI50) of 180 nM.

`COc1cc2c(cc1OCc1cn(CCCCCOc3ccc4c(c3)CC[C@@H]3[C@@H]4CC[C@]4(C)[C@@H](O)CC[C@@H]34)nn1)N=C[C@@H]1CCCN1C2=O` returned a GI50 of 190 nM.

`COc1cc2c(cc1OCCCCCN1CCN(CCCCCOc3ccc4c(c3)CC[C@@H]3[C@@H]4CC[C@]4(C)[C@@H](O)CC[C@@H]34)CC1)N=C[C@@H]1CC(F)(F)CN1C2=O`: the GI50 came to 130 nM.

The subject of another assay is A2780. The experiment in a line: Cytotoxicity against human A2780 cells by sulforhodamine B method. Format: functional.
Consider `COc1cc2c(cc1OCCCOc1ccc3c(c1)CC[C@@H]1[C@@H]3CC[C@]3(C)[C@@H](O)CC[C@@H]13)N=C[C@@H]1C[C@@H](F)CN1C2=O`, for which the GI50 turned out to be 170 nM.

For `COc1cc2c(cc1OCc1cn(CCCCCOc3ccc4c(c3)CC[C@@H]3[C@@H]4CC[C@]4(C)[C@@H](O)CC[C@@H]34)nn1)N=C[C@@H]1CCCN1C2=O`, the GI50 amounted to 170 nM. This counts as sub-micromolar.

As for `COc1cc2c(cc1OCCCCCN1CCN(CCCCCOc3ccc4c(c3)CC[C@@H]3[C@@H]4CC[C@]4(C)[C@@H](O)CC[C@@H]34)CC1)N=C[C@@H]1CC(F)(F)CN1C2=O`, the GI50 was determined as 160 nM.

`COc1cccc2c1C(=O)c1c(O)c3c(c(O)c1C2=O)C[C@@](O)(C(=O)CO)C[C@@H]3O[C@H]1C[C@H](N)[C@H](O)[C@H](C)O1` [DOXORUBICIN HYDROCHLORIDE] registered a GI50 of 160 nM.

The test system of a further assay is PC-3. The experiment in a line: Cytotoxicity against human PC3 cells by sulforhodamine B method. Format: functional.
`COc1cc2c(cc1OCCCOc1ccc3c(c1)CC[C@@H]1[C@@H]3CC[C@]3(C)[C@@H](O)CC[C@@H]13)N=C[C@@H]1C[C@@H](F)CN1C2=O` gave a GI50 of 190 nM. That is a sub-micromolar value.

In turn, `COc1cc2c(cc1OCc1cn(CCCCCOc3ccc4c(c3)CC[C@@H]3[C@@H]4CC[C@]4(C)[C@@H](O)CC[C@@H]34)nn1)N=C[C@@H]1CCCN1C2=O` showed a GI50 of 190 nM.

Regarding `COc1cc2c(cc1OCCCCCN1CCN(CCCCCOc3ccc4c(c3)CC[C@@H]3[C@@H]4CC[C@]4(C)[C@@H](O)CC[C@@H]34)CC1)N=C[C@@H]1CC(F)(F)CN1C2=O`, the GI50 stood at 190 nM. In other words, the sub-micromolar range.

The subject of another assay is SiHa. Briefly: Cytotoxicity against human SiHa cells by sulforhodamine B method. The class given is functional.
With `COc1cc2c(cc1OCCCOc1ccc3c(c1)CC[C@@H]1[C@@H]3CC[C@]3(C)[C@@H](O)CC[C@@H]13)N=C[C@@H]1C[C@@H](F)CN1C2=O`, it took 2120 nM to inhibit growth by half (GI50).

For the molecule `COc1cc2c(cc1OCc1cn(CCCCCOc3ccc4c(c3)CC[C@@H]3[C@@H]4CC[C@]4(C)[C@@H](O)CC[C@@H]34)nn1)N=C[C@@H]1CCCN1C2=O`, growth was halved (GI50) at 1170 nM.

Molecule `COc1cc2c(cc1OCCCCCN1CCN(CCCCCOc3ccc4c(c3)CC[C@@H]3[C@@H]4CC[C@]4(C)[C@@H](O)CC[C@@H]34)CC1)N=C[C@@H]1CC(F)(F)CN1C2=O` yielded a GI50 of 190 nM.

`COc1cccc2c1C(=O)c1c(O)c3c(c(O)c1C2=O)C[C@@](O)(C(=O)CO)C[C@@H]3O[C@H]1C[C@H](N)[C@H](O)[C@H](C)O1` [DOXORUBICIN HYDROCHLORIDE] gave a GI50 of 170 nM.

The next assay concerns MCF7. The experiment in a line: Cytotoxicity against human MCF7 cells by sulforhodamine B method. The class given is functional.
`COc1cc2c(cc1OCCCOc1ccc3c(c1)CC[C@@H]1[C@@H]3CC[C@]3(C)[C@@H](O)CC[C@@H]13)N=C[C@@H]1C[C@@H](F)CN1C2=O`: halving of growth (GI50) required 140 nM.

`COc1cc2c(cc1OCc1cn(CCCCCOc3ccc4c(c3)CC[C@@H]3[C@@H]4CC[C@]4(C)[C@@H](O)CC[C@@H]34)nn1)N=C[C@@H]1CCCN1C2=O` had a GI50 of 140 nM.

On to `COc1cc2c(cc1OCCCCCN1CCN(CCCCCOc3ccc4c(c3)CC[C@@H]3[C@@H]4CC[C@]4(C)[C@@H](O)CC[C@@H]34)CC1)N=C[C@@H]1CC(F)(F)CN1C2=O`, for which growth was halved (GI50) at 140 nM.

`COc1cccc2c1C(=O)c1c(O)c3c(c(O)c1C2=O)C[C@@](O)(C(=O)CO)C[C@@H]3O[C@H]1C[C@H](N)[C@H](O)[C@H](C)O1` [DOXORUBICIN HYDROCHLORIDE] displayed a GI50 of 170 nM.

Another assay relates to ZR-75-1. The experiment in a line: Cytotoxicity against human ZR-75-1 cells by sulforhodamine B method. Format: functional.
On to `COc1cc2c(cc1OCCCOc1ccc3c(c1)CC[C@@H]1[C@@H]3CC[C@]3(C)[C@@H](O)CC[C@@H]13)N=C[C@@H]1C[C@@H](F)CN1C2=O`, for which the GI50 was 140 nM. This lies in the sub-micromolar range.

In the case of `COc1cc2c(cc1OCc1cn(CCCCCOc3ccc4c(c3)CC[C@@H]3[C@@H]4CC[C@]4(C)[C@@H](O)CC[C@@H]34)nn1)N=C[C@@H]1CCCN1C2=O`, it took 110 nM to inhibit growth by half (GI50). The GI50 values of the last two molecules are within 1.5-fold of each other.

As to `COc1cc2c(cc1OCCCCCN1CCN(CCCCCOc3ccc4c(c3)CC[C@@H]3[C@@H]4CC[C@]4(C)[C@@H](O)CC[C@@H]34)CC1)N=C[C@@H]1CC(F)(F)CN1C2=O`, the GI50 was 120 nM.
